# Laboratory results from PubChem BioAssay (NCI).
# Where “and” joins values, the source holds several entries; their conditions need not be identical. Identical values can stand only once.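 Briefly, cells in 96-well plates were exposed to five compound concentrations for 48 h, and endpoints were estimated by linear interpolation. GI50: concentration for 50% inhibition of growth. TGI marks complete inhibition of growth.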
# Key:
# Test in all cases: inhibition of tumour cell growth, NCI panel, 48 h
# 786-0 renal = tested on: 786-0 renal
# A498 renal = tested on: A498 renal
# CAKI-1 renal = tested on: CAKI-1 renal
# CCRF-CEM leukemia = tested on: CCRF-CEM leukemia
# HCC-2998 colon = tested on: HCC-2998 colon
# HOP-92 NSCLC = tested on: HOP-92 NSCLC
# MOLT-4 leukemia = tested on: MOLT-4 leukemia
# SK-OV-3 ovarian = tested on: SK-OV-3 ovarian
# HOP-18 NSCLC = tested on: HOP-18 NSCLC
# SNB-78 CNS = tested on: SNB-78 CNS
SMILES,GI50 (786-0 renal),TGI (786-0 renal),GI50 (A498 renal),TGI (A498 renal),GI50 (CAKI-1 renal),TGI (CAKI-1 renal),GI50 (CCRF-CEM leukemia),TGI (CCRF-CEM leukemia),GI50 (HCC-2998 colon),TGI (HCC-2998 colon),GI50 (HOP-92 NSCLC),TGI (HOP-92 NSCLC),GI50 (MOLT-4 leukemia),TGI (MOLT-4 leukemia),GI50 (SK-OV-3 ovarian),TGI (SK-OV-3 ovarian),TGI (HOP-18 NSCLC),TGI (SNB-78 CNS),GI50 (SNB-78 CNS)
Cc1cc(NC(=O)NCCOc2ccc(N3C(N)=NC(N)=NC3(C)C)cc2Cl)ccc1S(=O)(=O)F,5.02 µM,> 100 µM,10.2 µM,> 100 µM,55.4 µM,> 100 µM,0.805 µM,> 67.6 µM,2.96 µM,> 100 µM,5.07 µM,22.2 µM,4.31 µM,> 100 µM,12 µM,> 100 µM,,,
COc1ccccc1/C=C1\C(=O)N(C(=O)Cc2ccccc2)N=C1C,,> 100 µM,,,,> 100 µM,,> 100 µM,,> 100 µM,,,,> 100 µM,,,> 100 µM,> 100 µM,
COc1ccc(-n2cc(-c3cc(OC)c(OC)c(OC)c3)nc2SCc2cccc(C#N)c2)cc1OC,> 100 µM,> 100 µM,> 100 µM,> 100 µM,> 100 µM,> 100 µM,> 100 µM,> 100 µM,> 100 µM,> 100 µM,27.8 µM,78.9 µM,51.7 µM,> 100 µM,> 100 µM,> 100 µM,,,
C=CC[P@]1(=O)O[C@H](c2ccccc2)C(C)N1C(C)C (some centres undefined),,> 100 µM,,> 100 µM,,,,> 100 µM,,> 100 µM,,> 100 µM,,> 100 µM,,> 100 µM,> 100 µM,,
COc1cc(C[C@H]2COC(=O)[C@]2(O)Cc2ccc(OCc3ccccc3)c(OC)c2)ccc1OCc1ccccc1,85.4 µM,> 100 µM,27.5 µM,99.1 µM,19.4 µM,> 100 µM,> 100 µM,> 100 µM,26.5 µM,> 100 µM,> 100 µM,> 100 µM,6.2 µM,> 100 µM,> 100 µM,> 100 µM,,,
O=C1NC(c2ccccc2)(c2ccccc2)C(=O)N1CCCCCCN1C(=O)NC(c2ccccc2)(c2ccccc2)C1=O,,49.3 µM,,> 100 µM,,> 100 µM,,> 100 µM,,> 100 µM,,19.9 µM,,> 100 µM,,77.2 µM,> 100 µM,> 100 µM,
O=S(=O)(F)Cc1ccccc1,,> 100 µM,,> 100 µM,,> 100 µM,,> 100 µM,,> 100 µM,,> 100 µM,,> 100 µM,,> 100 µM,,,
COC1CCCc2c(OC(C)=O)ccc(OC(C)=O)c21 (centres undefined),,> 100 µM,,,,> 100 µM,,,,> 100 µM,,34.1 µM,,> 100 µM,,> 100 µM,,> 100 µM,
COc1ccc2c(=O)c(-c3cc(OC)c(OC)cc3OC)coc2c1,,> 100 µM,,> 100 µM,,> 100 µM,,> 100 µM,,> 63.9 µM,,,,> 100 µM,,> 44.1 µM,,> 100 µM,
O=[N+]([O-])c1ccccc1/C=N\NC(=S)N/N=C/c1ccccc1[N+](=O)[O-],38 µM,> 100 µM,2.49 µM,28.4 µM,3.46 µM,> 100 µM,4.19 µM,> 100 µM,20 µM,> 100 µM,26.2 µM,> 100 µM,6.47 µM,> 100 µM,6.07 µM,> 100 µM,,,
COc1cc(/C=C/C(=O)c2c(C)n([O-])c3ccccc3[n+]2=O)cc(OC)c1OC,6.94 µM,20.1 µM,3.97 µM,17.8 µM,7.61 µM,20.7 µM,3.66 µM,23.3 µM,8.77 µM,22.3 µM,3.47 µM,15.7 µM,3.38 µM,40.7 µM,11 µM,25.5 µM,,,
NC(CSC(c1ccccc1)(c1ccccc1)c1ccccc1)C(=O)O (centres undefined),1.41 µM and 4.24 µM,70.3 µM and > 100 µM,0.493 µM,51.9 µM and 43 µM,15.2 µM and 7.17 µM,51.6 µM and > 100 µM,1.59 µM and 0.942 µM,19.4 µM and > 100 µM,2.52 µM and 2.64 µM,7.4 µM and 10.8 µM and 23.9 µM,2.17 µM and 10.1 µM,,7.54 µM and 5.01 µM,83.8 µM and 15.9 µM and > 100 µM,0.425 µM,14.8 µM and > 100 µM,116 µM,95.9 µM,10.8 µM
NCC(=O)Nc1ccc(Cl)cc1C(=O)c1ccc[nH]1,,> 100 µM,,> 100 µM,,> 100 µM,,22.5 µM,,> 100 µM,,> 76.5 µM,,> 100 µM,,> 100 µM,,,
O=C(O)/C=C/c1c2ccc(=O)c(O)c-2oc2c(O)c(O)ccc12,,54.9 µM,,> 100 µM,,> 100 µM,,23.2 µM,,> 100 µM,,> 100 µM,,49.2 µM,,> 100 µM,,,
COc1ccc(-c2cc(=O)c3c(O)c(O)c(OC)cc3o2)cc1O,,> 100 µM,,> 100 µM,,> 100 µM,,> 100 µM,,> 100 µM,,> 100 µM,,> 100 µM,,> 100 µM,> 100 µM,,
CCc1nc(N)nc(N)c1C#CC(C)c1ccc(-c2ccncc2)cc1Cl (centres undefined),0.00501 µM and 0.0128 µM,4.06 µM and 6.63 µM,0.109 µM and 0.223 µM,1.64 µM and 5.81 µM,0.0259 µM,5.07 µM,0.0143 µM and 0.0367 µM,5.48 µM and 14.5 µM,0.0869 µM and 0.134 µM,4.07 µM and 13.1 µM,0.109 µM and 0.547 µM,1.56 µM and 6.36 µM,0.0276 µM and 0.0493 µM,4.62 µM and 8.45 µM,0.0977 µM and 0.0932 µM,2.63 µM and 14.6 µM,,,
COc1ccc2nc3cc(Cl)ccc3c(Nc3ccccc3-c3ccccc3Nc3c4ccc(Cl)cc4nc4ccc(OC)cc34)c2c1,,> 59 µM,,97.5 µM,,> 88.1 µM,,> 49.2 µM,,> 67.5 µM,,> 82.5 µM,,> 69.4 µM,,> 100 µM,> 100 µM,> 100 µM,
CCN(Cc1cc(Cl)cc(C)c1O)Cc1c(O)ccc2ccccc12,,34 µM,,33.1 µM,,28.8 µM,,42.5 µM,,32.7 µM,,26.2 µM,,28 µM,,29.8 µM,,,
Cc1cccc(NC(=O)c2c(N)[n+]([O-])c3ccccc3[n+]2[O-])c1,,17.9 µM,,29.8 µM,,27.4 µM,,> 100 µM,,,,29.5 µM,,81 µM,,63 µM,32.2 µM,35.4 µM,
